From ChEMBL document CHEMBL3046051, “A novel approach to the synthesis of 1,2,3-triazoles and their SAR studies” (2010)

Assays:
Type in all cases: functional
[1] = system: Candida albicans; assay: Antifungal activity against Candida albicans 227 by paper disk method
[2] = system: Aspergillus niger; assay: Antifungal activity against Aspergillus niger 281 by paper disk method
[3] = system: Wickerhamiella azyma; assay: Antifungal activity against Candida azyma 1452 by paper disk method
[4] = system: Aspergillus flavus; assay: Antifungal activity against Aspergillus flavus 871 by paper disk method
[5] = system: Aspergillus flavus; assay: Antifungal activity against Aspergillus flavus 871 by paper disk method relative to voriconazole
[6] = system: Candida albicans; assay: Antifungal activity against Candida albicans 227 by paper disk method relative to voriconazole
[7] = system: Wickerhamiella azyma; assay: Antifungal activity against Candida azyma 1452 by paper disk method relative to voriconazole
[8] = system: Aspergillus niger; assay: Antifungal activity against Aspergillus niger 281 by paper disk method relative to voriconazole

| SMILES | inhibition zone (IZ) [1] [mm] | inhibition zone (IZ) [2] [mm] | inhibition zone (IZ) [3] [mm] | inhibition zone (IZ) [4] [mm] | inhibition (INH) [5] [%] | inhibition (INH) [6] [%] | inhibition (INH) [7] [%] | inhibition (INH) [8] [%] |
| --- | --- | --- | --- | --- | --- | --- | --- | --- |
| C[C@@H](c1ncncc1F)[C@](O)(Cn1cncn1)c1ccc(F)cc1F [VORICONAZOLE] | 16 | 18 | 15 | 15 | – | – | – | – |
| C=CN1C(C)=C(C(C)=O)NN1c1ccc(C)cc1 | – | – | – | – | -40 | -56.25 | -53.33 | -66.67 |
| C=CN1C(C)=C(C(C)=O)NN1c1ccc(C(=O)O)cc1 | – | – | – | – | 33.33 | 6.25 | 6.67 | -11.11 |
| C=CN1C(C)=C(C(C)=O)NN1c1cccc(O)c1 | – | – | – | – | 40 | 18.75 | 26.67 | 11.11 |
| C=CN1C(C)=C(C(C)=O)NN1c1cccc(C)c1 | – | – | – | – | -46.67 | -62.5 | -60 | -72.22 |
| C=CN1C(C)=C(C(C)=O)NN1c1ccccc1 | – | – | – | – | -13.33 | -31.25 | -26.67 | -33.33 |
| C=CN1C(C)=C(C(C)=O)NN1c1ccc(Cl)cc1 | – | – | – | – | -66.67 | -87.5 | -80 | -94.44 |
| C=CN1C(C)=C(C(C)=O)NN1c1ccc([N+](=O)[O-])cc1 | – | – | – | – | 20 | 0 | 6.67 | -27.78 |
| C=CN1C(C)=C(C(C)=O)NN1c1cccc([N+](=O)[O-])c1 | – | – | – | – | 13.33 | -6.25 | 0 | -33.33 |
| C=CN1C(C)=C(C(C)=O)NN1c1ccc(O)cc1 | – | – | – | – | 46.67 | 25 | 33.33 | 16.67 |
| C=CN1C(C)=C(C(C)=O)NN1c1cccc(Cl)c1 | – | – | – | – | -73.33 | -93.75 | -86.67 | -100 |
| C=CN1C(C)=C(C(C)=O)NN1c1cccc(OC)c1 | – | – | – | – | -26.67 | -43.75 | -40 | -50 |
| C=CN1C(C)=C(C(C)=O)NN1c1ccc(OC)cc1 | – | – | – | – | -20 | -37.5 | -33.33 | -44.44 |
